Measured values taken from article PMC11795529, “Simulation of Antral Conditions for Estimating Drug Apparent Equilibrium Solubility after a High-Calorie, High-Fat Meal” (Molecular Pharmaceutics, 2025).
Values after ≈ are worked out from the molar mass of the structure shown. Values joined by “and” are separate entries in the source; they are usually repeats but may differ in a detail not shown here. Identical values can stand only once. Like-named read-outs stand apart in the source and are kept apart here.

Columns and labels:
[1] = cited from earlier work
[2] = cited from earlier work; for Ketoconazole Concentration, Mean: three samples
[3] = Shake-flask apparent equilibrium solubility in pooled human antral aspirates (HGFfed) collected after a high-calorie, high-fat meal and water; format: physicochemical; conditions: pooled antral (gastric) aspirates, fed state
[4] = Shake-flask apparent equilibrium solubility in biorelevant media (FeSSGF-V2, FEDGAS pH 3, FeSSGF-V3); format: physicochemical
Description: Biorelevant media were prepared on the day of the solubility measurements.
FEDGAS1/2 pH = 3 (Level II biorelevance[5]) was prepared as FEDGAS pH = 3 but with half the amount of FEDGASgel, i.e., by using 7.65 g of FEDGASgel/90 mL.
FEDGAS1/4 pH = 3 (Level II biorelevance[5]) was prepared as FEDGAS pH = 3 but with 1/4 of the amount of FEDGASgel, i.e., by using 3.825 g of FEDGASgel/90 mL.
FEDGASbuffer pH = 3 (Level I biorelevance[5]) was prepared by diluting FEDGAS buffer concentrate with distilled water, as indicated in Table 3.
In Level III FeSSGF-V3, the presence of proteins was simulated using Régilait Skimmed Milk Powder. The high-calorie, high-fat meal consists of up to about 1000 kcal and ≈15% of the total amount of calories is derived from proteins.[15],[16] If 1 g of protein corresponds to 4 kcal, then the meal contains up to about 37 g of proteins. Based on phenol red data, after a high-calorie, high-fat meal and a glass of water 30 min after initiation of meal intake, the impact of resting gastric contents/swallowed saliva/gastric secretions on the dilution of antral contents is substantial; however, dilution of contents occurs predominantly during meal administration.[8] Specifically, when 100 mg of phenol red was included in the meal, the mean phenol red concentration in the antrum fluctuated around 0.06 mg/mL for at least 3 h after initiation of meal administration.[6] It can, therefore, be assumed that the protein concentration in the antral region would be about 37 g × (0.06 mg/mL/100 mg) = 0.0222 g/mL ≈ 22 mg/mL. Since Régilait contains 36% w/w proteins, Régilait Skimmed Milk Powder 6.1% w/v in medium is equivalent to 2.196% (w/v) protein concentration, i.e., ≈ 22 mg/mL.

[5] = Level III FeSSGF-V3HCl and HGFfed15 sample, 37 °C, shake-flask
[6] = set-up: method as in PMID 19644845; conditions: cited from earlier work
physchem = conditions: for solubility thermodynamic at 4 h: human, pooled antral (gastric) aspirates, fed state, thermodynamic from solid; for solubility: simple aqueous solution

In the case of C#C[C@]1(O)CC[C@H]2[C@@H]3CCC4=Cc5oncc5C[C@]4(C)[C@H]3CC[C@@]21C [Danazol], the logP [1] is listed as 4.53, the “Danazol Concentration” value ([2]; Level II FeSSIF, 1st filtration, samples 1, 2, 3 in order) is listed as 26.61 µg/mL and 26.22 µg/mL and 26.44 µg/mL and the “Danazol Concentration” value ([2]; Level II FeSSIF, 2nd filtration, samples 1, 2, 3 in order) is listed as 26.34 µg/mL and 25.39 µg/mL and 25.44 µg/mL. The “adsorption on regenerated cellulose filter” value ([2]; Level II FeSSIF) was “negligible adsorption” and the “% adsorbed” value ([2]; Level II FeSSIF, samples 1, 2, 3 in order) was 1.04% and 3.18% and 3.78%.
With CC(=O)N1CCN(c2ccc(OCC3COC(Cn4ccnc4)(c4ccc(Cl)cc4Cl)O3)cc2)CC1 (stereo not drawn) [Ketoconazole] the solubility at 4 h ([3]; 37 °C, plasma or biological fluid, thermodynamic from solid, from the four mean values in HGFfed45, 75, 105, 135, read-out: grand mean apparent solubility in HGFfed) was 2290 µg/mL (≈ 4.31 mM), the solubility thermodynamic at 4 h ([3]; HGFfed45, 75, 105, 135, 37 °C, 4 h, mean(SD), read-out: mean apparent equilibrium solubility in pooled aspirates, range over the four HGFfed samples) was 770 to 3670 µg/mL (≈ 1.45 to 6.91 mM) and the “times higher than the point estimate of intragastric solubility” value ([4]; FEDGAS1/2 pH = 3 and FEDGAS1/4 pH = 3 vs 3 mg/mL) was “more than 1.6 times”. For the same compound, the “times higher than the point estimate of intragastric solubility” value ([4]; FEDGAS pH = 3 vs 3 mg/mL) was “more than 2.5 times”, the “percent higher than the point estimate for intragastric solubility” value ([4]; FEDGASbuffer pH 3 vs 3 mg/mL) was 50% and the “percent lower than the point estimate for intragastric solubility” value ([4]; Level I FeSSGF-V2 vs 3 mg/mL) was 30%. For the same compound, the solubility thermodynamic at 4 h ([4]; Level I FeSSGF-V3acetates, pH 3, Level I FeSSGF-V3acetates, initial pH 3, pHeq 3.7) was 3200 µg/mL (≈ 6.02 mM), the “percent lower than the point estimate for intragastric solubility” value ([4]; Level II FeSSGF-V2 vs 3 mg/mL) was “more than 40%” and the solubility thermodynamic at 4 h ([4]; Level II FeSSGF-V3acetates, pH 3, Level II FeSSGF-V3acetates, initial pH 3, pHeq 3.7) was 3450 µg/mL (≈ 6.49 mM). For the same compound, the solubility thermodynamic at 4 h ([4]; Level III FeSSGF-V3HCl, pH 3, Level III FeSSGF-V3HCl, initial pH 3, pHeq 3.8) was 3730 µg/mL (≈ 7.02 mM), the “percent higher than the estimated point solubility in antral contents” value ([4]; Level III FeSSGF-V3 prepared with hydrochloric acid) was 24% and the solubility thermodynamic at 4 h ([4]; biorelevant medium, 37 °C, pH 3, fassgf or other biorelevant, thermodynamic from solid, FEDGAS1/2 pH = 3 (Level II), mean(SD), n = 3) was 5650 µg/mL (≈ 10.6 mM). The solubility thermodynamic at 4 h ([4]; biorelevant medium, 37 °C, pH 3, fassgf or other biorelevant, thermodynamic from solid, FEDGAS1/4 pH = 3 (Level II), mean(SD), n = 3) was 5070 µg/mL (≈ 9.54 mM), the solubility thermodynamic at 4 h ([4]; biorelevant medium, 37 °C, pH 3, fassgf or other biorelevant, thermodynamic from solid, FEDGAS pH = 3 (Level II), mean(SD), n = 3) was 7570 µg/mL (≈ 14.2 mM) and the solubility thermodynamic at 4 h ([4]; biorelevant medium, 37 °C, pH 3, fassgf or other biorelevant, thermodynamic from solid, Level II FeSSGF-V2, pH 3, mean(SD), n = 3) was 1640 µg/mL (≈ 3.08 mM). The solubility thermodynamic at 4 h ([4]; biorelevant medium, pH 3, FEDGASbuffer pH 3 (Level I), mean(SD), n = 3) was 4600 µg/mL (≈ 8.66 mM), the solubility thermodynamic at 4 h ([4]; biorelevant medium, pH 3, Level I FeSSGF-V2, pH 3, mean(SD), n = 3) was 2140 µg/mL (≈ 4.03 mM) and the “aqueous solubility at pHeq as share of measured apparent solubility” value (shortened to “aqueous solubility at pHeq as share”) (HGFfed45) was 21%. The “aqueous solubility at pHeq as share” value (HGFfed75) was 22%, the “aqueous solubility at pHeq as share” value (HGFfed105) was 18% and the “aqueous solubility at pHeq as share” value (HGFfed135) was 18%. For the same compound, the “incubation time within which equilibrium is achieved” value [5] was at most 4 h, the intrinsic aqueous solubility [1] was “≈ 2 μg/mL” and the “apparent solubility in human antral fluids” value ([6]; 30 min after 500 mL Ensure Plus, pHeq 5.7) was 630 µg/mL. For the same compound, the “apparent solubility in human antral fluids” value ([6]; 60 min after 500 mL Ensure Plus, pHeq 5.1) was 3150 µg/mL, the “apparent solubility in human antral fluids” value ([6]; 120 min after 500 mL Ensure Plus, pHeq 4.9) was 4700 µg/mL and the “adsorption on regenerated cellulose filter” value ([2]; aqueous buffers pH 3.5 to 5) was “negligible adsorption”. The “Ketoconazole Concentration, Mean” value ([2]; pH 3.5, 1st filtration) was 2.8763 mg/mL, the “Ketoconazole Concentration, Mean” value ([2]; pH 3.5, 2nd filtration) was 2.8250 mg/mL and the “% adsorbed” value ([2]; pH 3.5) was 1.63%. The “Ketoconazole Concentration, Mean” value ([2]; pH 4.0, 1st filtration) was 0.9297 mg/mL, the “Ketoconazole Concentration, Mean” value ([2]; pH 4.0, 2nd filtration) was 0.9288 mg/mL and the “% adsorbed” value ([2]; pH 4.0) was 0.23%. For the same compound, the “Ketoconazole Concentration, Mean” value ([2]; pH 5.0, 1st filtration) was 0.0825 mg/mL, the “Ketoconazole Concentration, Mean” value ([2]; pH 5.0, 2nd filtration) was 0.0775 mg/mL and the “% adsorbed” value ([2]; pH 5.0) was 6.16%. For the same compound, the solubility thermodynamic (physchem; aqueous phase, pH 3.7) was 1290 µg/mL (≈ 2.43 mM), the solubility thermodynamic at 4 h (physchem; pH 4, plasma or biological fluid) was 3000 µg/mL (≈ 5.65 mM) and the solubility thermodynamic at 4 h (physchem; pH 4.1, plasma or biological fluid) was 2340 µg/mL (≈ 4.4 mM). It also gave a solubility thermodynamic at 4 h (physchem; pH 4.2, plasma or biological fluid) of 1470 µg/mL (≈ 2.77 mM), a solubility thermodynamic at 4 h (physchem; pH 4.6, plasma or biological fluid) of 610 µg/mL (≈ 1.15 mM) and a solubility thermodynamic at 4 h (physchem; plasma or biological fluid) of 1850 µg/mL (≈ 3.48 mM). It also gave a solubility (physchem; pH 4) of 650 µg/mL (≈ 1.22 mM), a solubility (physchem; pH 4.1) of 520 µg/mL (≈ 0.978 mM) and a solubility (physchem; pH 4.2) of 410 µg/mL (≈ 0.771 mM). It also gave a solubility (physchem; pH 4.6) of 170 µg/mL (≈ 0.32 mM).
